The text below walks through data of PubChem BioAssay AID1592 (Sanford-Burnham Center for Chemical Genomics, 2009).

The subject of this data set is mouse plasma stability, LC/MS/MS, 180 min. The experiment in a line: mouse plasma degradation, percent remaining – biochemical, LC/MS/MS, 180 min, dry powder, ADME assay, late-stage follow-up (AID 1592). The conditions noted are these: at 1 µM; hits give low values.

Active and inactive are the calls of the source.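 How the source made its calls: active means less than 90% of the starting compound still present after 180 minutes in mouse plasma; inactive means 90% or more still present.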

In the case of `C=CCn1c(SCC(=O)c2ccc(O)c(O)c2)nnc1-c1ccccc1OC`, the percent remaining was 93.2% (inactive).
